Measurements reported in patent US4439444A, “Amidobenzamides, their salts and pharmaceutical compositions containing them” (Sanofi, priority 1981, dated 1984).
Entries after “also recorded” stand apart in the source; their conditions may differ. Read-outs that look alike come from different tables or passages of the source.

Legend:
[1] = biological target: T1, gastric histamine H2 receptors (Rattus norvegicus, UniProt P25102); experiment: antisecretory activity: antagonism of histamine-induced gastric acid hypersecretion in rat (Ghosh and Schild); assay type: in vivo; settings: for Relative potency (cimetidine = 1): gastric H2, from ID50, rat i.v.; for ED50: rat, read-out: ID50 (dose which inhibits by 50% the gastric hypersecretion induced by histamine); for antisecretory (gastric H2 blocking) activity in words: comparison from Table I
T1 construct: the gastric secretion is measured by perfusion of a physiological solution at a constant speed in the stomach of the animal; from tissue; host or cells: stomach of the living rat (in vivo, intravenous histamine infusion)
Protocol: According to this test, a gastric acid hypersecretion is induced by intravenous infusion of a sub-maximal dose of histamine equivalent to 15 mcmol/kg/hour and the gastric secretion is measured by perfusion of a physiological solution at a constant speed in the stomach of the animal.
Such a ID50 represents the index of the gastric H2 blocking action.

[2] = biological target: T2, cardiac histamine H2 receptors (Cavia porcellus, UniProt P47747); experiment: inhibition of the increase in frequency induced by histamine on the isolated right atrium of the guinea pig; assay type: cell-based; settings: for Relative potency (cimetidine = 1): cardiac H2, from IC50, guinea pig right atrium
T2 construct: induced by histamine on the isolated right atrium of the guinea pig; from tissue; host or cells: isolated right atrium of the guinea pig
Source text: Such an IC50 represents the index of cardiac H2 blocking action.

[3] = system: immature Sprague Dawley rats, castrated, testosterone-stimulated genitals and levator ani muscle; settings: rat, in vivo, ip, 200 mg/kg/day
Protocol: Testosterone was administered by sub-cutaneous route, suspended in a vehicle for steroids, both at the dose of 0.2 mg/animal/day, and 0.4 mg/animal/day. […] As a control it was used a lot of animals treated with the vehicles only. The treatment lasted 8 days. The animals were killed 24 hours after the last injection, the ventral prostrate, the seminal vescicles and the levator ani were immediately drawn and weighed.

[4] = system: cardiac H2 receptors; settings: Clinica Terapeutica, 1981, 96, 81-91; cited from earlier work
[5] = system: gastric acid secretion; settings: rat; as oxalate; cited from earlier work
[6] = intravenous route, single administration, histamine infusion 15 mcmol/kg/hour

T1 sequence (P25102 whole entry, the tested form may be a part): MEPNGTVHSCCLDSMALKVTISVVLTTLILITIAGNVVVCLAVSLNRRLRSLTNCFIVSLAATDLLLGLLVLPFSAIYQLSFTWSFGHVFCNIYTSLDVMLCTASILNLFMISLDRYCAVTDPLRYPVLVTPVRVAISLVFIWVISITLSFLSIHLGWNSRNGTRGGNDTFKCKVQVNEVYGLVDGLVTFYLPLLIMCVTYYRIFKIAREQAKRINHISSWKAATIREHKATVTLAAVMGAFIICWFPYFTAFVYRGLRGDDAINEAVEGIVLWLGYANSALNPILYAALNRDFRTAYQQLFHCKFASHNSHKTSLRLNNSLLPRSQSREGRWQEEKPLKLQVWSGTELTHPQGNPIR
T2 sequence (P47747 whole entry): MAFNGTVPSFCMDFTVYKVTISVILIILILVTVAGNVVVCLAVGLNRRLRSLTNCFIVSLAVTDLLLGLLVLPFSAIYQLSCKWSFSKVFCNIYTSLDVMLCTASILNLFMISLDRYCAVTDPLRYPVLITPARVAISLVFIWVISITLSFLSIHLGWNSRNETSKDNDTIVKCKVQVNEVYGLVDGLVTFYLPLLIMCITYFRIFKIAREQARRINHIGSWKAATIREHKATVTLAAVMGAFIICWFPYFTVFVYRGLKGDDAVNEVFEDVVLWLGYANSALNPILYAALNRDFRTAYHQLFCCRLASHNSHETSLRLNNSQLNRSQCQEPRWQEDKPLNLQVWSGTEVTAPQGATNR

Compound | Relative potency (cimetidine = 1) [1] | ED50 [1, 6] [µmol/kg] | Relative potency (cimetidine = 1) [2] | further results
CN(C)Cc1ccc(CSCCNC(=O)c2cccc(NS(C)(=O)=O)c2)o1 [CM 57822, 3-methanesulfonamido-N-[2-(5-dimethylaminomethylfuran-2-ylmethylthio)ethyl]benzamide] | 0.97 | 0.98 | 0.2 | 
CN(C)Cc1ccc(CSCCNC(=O)c2cccc(NS(=O)(=O)c3ccccc3)c2)o1 [CM 57888, 3-benzenesulfonamido-N-[2-(5-dimethylaminomethylfuran-2-ylmethylthio)ethyl]benzamide] |  |  |  | effect when testosterone was administered at the dose of 0.4 mg/animal/day [3]: did not exhibit any effect
CN/C(=N/CCSCc1nc[nH]c1C)NC#N [Cimetidine, 2-cyano-1-methyl-3-[2[(5-methylimidazol-4-yl)methylthio]ethyl]guanidine, reference compound] |  |  |  | side effects in the treatment of the ulcerous disease [4]: bradycardia and of the asystolia observed as side effects; ED50 ([1]; iv): 0.95 µmol/kg
CN(C)Cc1ccc(CSCCNC(=O)c2ccc(S(N)(=O)=O)cc2)o1 [N-[2-(5-dimethylaminomethylfuran-2-ylmethylthio)ethyl]-4-sulfamoylbenzamide] |  |  |  | ED50 in the gastric acid secretion inhibiting activity [5]: 2.54 mg/kg
CNC(=C[N+](=O)[O-])NCCSCc1ccc(CN(C)C)o1 [Ranitidine, N-[2[[5-[(dimethylamino)methyl]furfuryl]thio]ethyl]-N'-methyl-2-nitro-1,1-ethenediamine, reference compound] | 3.80 |  | 5 | ED50 ([1]; iv): 0.25 µmol/kg
CN(C)Cc1ccc(CSCCNC(=O)c2cccc(NC(=O)c3cccnc3)c2)o1.O=C(O)C(=O)O.O=C(O)C(=O)O [SR 57927 A, 3-(3-pyridinecarboxamido)-N-[2-(5-dimethylaminomethylfuran-2-ylmethylthio)ethyl]benzamide dioxalate] | 0.82 |  |  | ED50 ([1]; iv): 1.15 µmol/kg
CCCCS(=O)(=O)Nc1cccc(C(=O)NCCSCc2ccc(CN(C)C)o2)c1 [SR 57981 A, 3-butanesulfonamido-N-[2-(5-dimethylaminomethylfuran-2-ylmethylthio)ethyl]benzamide] | 1.94 | 0.49 |  | antisecretory (gastric H2 blocking) activity in words [1]: very powerful

More lines, main results first:

Relative potency (cimetidine = 1) [1] | ED50 [1, 6] [µmol/kg] | Relative potency (cimetidine = 1) [2] | Compound | further results
0.42 | 2.26 | 1.3 | CN(C)Cc1ccc(CSCCNC(=O)c2ccc(S(N)(=O)=O)cc2)o1 [Compound A, N-[2-(5-dimethylaminomethylfuran-2-ylmethylthio)ethyl]-4-sulfamoyl benzamide, reference compound] | cardiac H2 blocking activity in words (compared with cimetidine) ([2]; comparison from Table II): more active
2.88 | 0.33 | 0.08 | CN(C)Cc1ccc(CSCCNC(=O)c2cccc(NC(=O)c3ccc[n+]([O-])c3)c2)o1 [SR 57912, 3-[(3-pyridine 1-oxyde)carboxamido]-N-[2-(5-dimethylaminomethylfuran-2-ylmethylthio)ethyl]benzamide] | antisecretory (gastric H2 blocking) activity in words [1]: very powerful; also recorded: very close to that of ranitidine
0.82 | 1.15 | 0.06 | CN(C)Cc1ccc(CSCCNC(=O)c2cccc(NC(=O)c3cccs3)c2)o1 [SR 57922, 3-(2-thienylcarboxamido)-N-[2-(5-dimethylaminomethylfuran-2-ylmethylthio)ethyl]benzamide] | 
0.52 | 1.82 |  | CN(C)Cc1ccc(CSCCNC(=O)c2cccc(NS(=O)(=O)c3cccnc3)c2)o1 [SR 57933, 3-(3-pyridinesulfonamido)-N-[2-(5-dimethylaminomethylfuran-2-ylmethylthio)ethyl]benzamide] | 
1.02 | 0.93 |  | CN(C)Cc1ccc(CSCCNC(=O)c2cccc(NS(=O)(=O)c3cccs3)c2)o1 [SR 57975, 3-(2-thiophenesulfonamido)-N-[2-(5-dimethylaminomethylfuran-2-ylmethylthio)ethyl]benzamide] | 
